{"source": "patent US11382918B2", "about": "“Methods for treating Huntington's Disease” (PTC Therapeutics, Inc., priority 2017, dated 2022)", "data": [{"test_system": "Endogenous Huntingtin Protein (HTT)", "assay": "Endogenous Huntingtin Protein Assay (ELISA-based MSD electrochemiluminescence)", "format": "cell-based", "conditions": "Table 1", "method_in_brief": "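MSD electrochemiluminescence sandwich ELISA for endogenous HTT: sample lysates captured overnight at 4 °C on MW1 (expanded polyglutamine) or MAB2166 antibody. Detection used rabbit monoclonal #5656S, then goat anti-rabbit SULFO-TAG antibody, each 1 h at room temperature.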", "units": {"IC50": "µM"}, "values": [{"smiles": "Cc1cc(-c2cc(=O)n3cc(N4CCN[C@@H](C)C4)ccc3n2)cc2cn(C)nc12", "note": "[compound 750, 2-(2,7-dimethyl-2H-indazol-5-yl)-7-[(3S)-3-methylpiperazin-1-yl]-4H-pyrido[1,2-a]pyrimidin-4-one]", "IC50": "3 to 33"}, {"smiles": "Cc1cc(-c2cc(=O)n3cc(N4CCN(C)[C@@H](C)C4)ccc3n2)cc2cn(C)nc12", "note": "[compound 751, 2-(2,7-dimethyl-2H-indazol-5-yl)-7-[(3S)-3,4-dimethylpiperazin-1-yl]-4H-pyrido[1,2-a]pyrimidin-4-one]", "IC50": "3 to 33"}, {"smiles": "Cc1cc(-c2cc(=O)n3cc(C4CCN(C)CC4)ccc3n2)cc2cn(C)nc12", "note": "[compound 752, 2-(2,7-dimethyl-2H-indazol-5-yl)-7-(1-methylpiperidin-4-yl)-4H-pyrido[1,2-a]pyrimidin-4-one]", "IC50": "0.1 to 0.5"}, {"smiles": "CCN1CCC(c2ccc3nc(-c4cc(C)c5nn(C)cc5c4)cc(=O)n3c2)CC1", "note": "[compound 753, 2-(2,7-dimethyl-2H-indazol-5-yl)-7-(1-ethylpiperidin-4-yl)-4H-pyrido[1,2-a]pyrimidin-4-one]", "IC50": "0.1 to 0.5"}, {"smiles": "Cc1cc(N2CCNCC2)cn2c(=O)cc(-c3ccc4nn(C)cc4c3)nc12", "note": "[compound 754, 9-methyl-2-(2-methyl-2H-indazol-5-yl)-7-(piperazin-1-yl)-4H-pyrido[1,2-a]pyrimidin-4-one]", "IC50": "0.5 to 1"}, {"smiles": "Cc1cc(N2CCN[C@H](C)C2)cn2c(=O)cc(-c3ccc4nn(C)cc4c3)nc12", "note": "[compound 755, 9-methyl-2-(2-methyl-2H-indazol-5-yl)-7-[(3R)-3-methylpiperazin-1-yl]-4H-pyrido[1,2-a]pyrimidin-4-one]", "IC50": "1 to 3"}, {"smiles": "Cc1cc(N2CCN[C@@H](C)C2)cn2c(=O)cc(-c3ccc4nn(C)cc4c3)nc12", "note": "[compound 756, 9-methyl-2-(2-methyl-2H-indazol-5-yl)-7-[(3S)-3-methylpiperazin-1-yl]-4H-pyrido[1,2-a]pyrimidin-4-one]", "IC50": "0.1 to 0.5"}, {"smiles": "CCc1nc(C)cn2nc(-c3cc(=O)n4cc(C5=CCNCC5)ccc4n3)cc12", "note": "[compound 763, 2-(4-ethyl-6-methylpyrazolo[1,5-a]pyrazin-2-yl)-7-(1,2,3,6-tetrahydropyridin-4-yl)-4H-pyrido[1,2-a]pyrimidin-4-one]", "IC50": "0.1 to 0.5"}, {"smiles": "CCCc1nc(C)cn2nc(-c3cc(=O)n4cc(C5CCNCC5)ccc4n3)cc12", "note": "[compound 766, 2-(6-methyl-4-propylpyrazolo[1,5-a]pyrazin-2-yl)-7-(piperidin-4-yl)-4H-pyrido[1,2-a]pyrimidin-4-one]", "IC50": "0.5 to 1"}, {"smiles": "Cc1cc(-c2cc(=O)n3cc(N4CCN(C)CC4)ccc3n2)cc2cn(C)nc12", "note": "[compound 768, 2-(2,7-dimethyl-2H-indazol-5-yl)-7-(4-methylpiperazin-1-yl)-4H-pyrido[1,2-a]pyrimidin-4-one]", "IC50": "1 to 3"}, {"smiles": "Cc1cn2nc(-c3cc(=O)n4cc(N5CC[C@@H](CN(C)C)C5)ccc4n3)cc2c(C)n1", "note": "[compound 770, 7-{(3S)-3-[(dimethylamino)methyl]pyrrolidin-1-yl}-2-(4,6-dimethylpyrazolo[1,5-a]pyrazin-2-yl)-4H-pyrido[1,2-a]pyrimidin-4-one]", "IC50": "3 to 33"}, {"smiles": "CCc1nc(C)cn2nc(-c3cc(=O)n4cc(C5CCNCC5)cc(C)c4n3)cc12", "note": "[compound 771, 2-(4-ethyl-6-methylpyrazolo[1,5-a]pyrazin-2-yl)-9-methyl-7-(piperidin-4-yl)-4H-pyrido[1,2-a]pyrimidin-4-one]", "IC50": "0.5 to 1"}, {"smiles": "CCc1nc(C)cn2nc(-c3cc(=O)n4cc(C5=CCNCC5)cc(C)c4n3)cc12", "note": "[compound 773, 2-(4-ethyl-6-methylpyrazolo[1,5-a]pyrazin-2-yl)-9-methyl-7-(1,2,3,6-tetrahydropyridin-4-yl)-4H-pyrido[1,2-a]pyrimidin-4-one]", "IC50": "3 to 33"}, {"smiles": "CCc1nc(C)cn2nc(-c3cc(=O)n4cc(C5CCN(C)CC5)cc(C)c4n3)cc12", "note": "[compound 774, 2-(4-ethyl-6-methylpyrazolo[1,5-a]pyrazin-2-yl)-9-methyl-7-(1-methylpiperidin-4-yl)-4H-pyrido[1,2-a]pyrimidin-4-one]", "IC50": "3 to 33"}]}]}
